# Values of other authors as cited in patent US20140093563A1, “FEBUXOSTAT COMPOSITIONS” (RANBAXY LABORATORIES LIMITED, priority 2011, published 2014).
smiles,measurement,value
"Cc1nc(-c2ccc(OCC(C)C)c(C#N)c2)sc1C(=O)O [febuxostat, 2-(3-cyano-4-isobutyloxyphenyl)-4-methyl-5-thiazolecarboxylic acid]",Solubility (BCS),low solubility
